Experimental data published in EP0279357A2, “Composition for the treatment of coronary diseases or organic brain syndrome” (BOEHRINGER INGELHEIM KG, priority 1987, dated 1988).

Assays:
[1] = test system: myocardiale Radiocalciumaufnahme; assay: Inhibition of isoprenaline-induced myocardial radiocalcium uptake in conscious rats after oral dosing (method of Arndts); assay type: in vivo, Ratten; settings: Rattus norvegicus, oral dose that inhibits by 50 % the myocardial radiocalcium uptake caused by 30 mg/kg s.c. Isoprenalin, read-out: H50
Description: 1. Bekanntlich ist der myocardiale Ca²⁺ Gehalt ein Maß für die hypoxische bzw. die durch toxische Catecholamindosen hervorgerufene Herzschädigung (Higgins et al. Mol. Cell. Cardiol. 10. 427-438, 1984; Nakanishi et. al., Am. J. Physiol. 242, 437-449, 1982; Fleckenstein A., Vorträge der Erlanger Physiol. Tagung 1970, Edit. Keidel, Springer Verl. Berlin; Heidelberg, New York, 1971). Umgekehrt ist die Inhibition der hypoxischen oder Isoprenalin-bedingten myocardialen Calciumaufnahme ein Maß für die cardioprotektive Effektivität von Calciumantagonisten (Fleckenstein s.o), von Calmodulinhibitoren (Higgins s.o.) und anderen Pharmaka, z.B. Betaadrenolytika (Arndts, Arzneimittelforschung, 25, 1279-1284 (1975)). Die cardioprotektive Wirkung wurde an wachen Ratten nach oraler Wirkstoffgabe anhand der von Arndts (s.o.) beschriebenen Methoden festgestellt und die Wirkungsstärke der Testsubstanzen als H₅₀-Werte angegeben; dieser Wert entspricht der Dosis, die die durch eine Gabe von 30 mg/kg s.c. Isoprenalin bedingte myocardiale Radiocalciumaufnahme bis 50 % hemmt. Hier erwiesen sich die vorliegenden Verbindungen als wirksamer als die bekannten Handelsprodukte Captopril und Enalapril. Die Ergebnisse sind in Tabelle I dargestellt.

[2] = test system: ischämischen Langendorff-Herzen; assay: Ischaemic Langendorff heart, recovery of regular contractions after reperfusion (in vitro or ex vivo); settings: ischaemic Langendorff hearts
Description: Hieraus läßt sich eine protektive Wirksamkeit der Substanzen auf Herzschädigungen während Hypoxie oder Ischämie ableiten.

[3] = test system: Ca²⁺-Efflux an der Kaninchen-Aorta; assay: Stimulated Ca2+ efflux in rabbit aorta (method of van Breemen et al. / Casteels and Droogman); assay type: cell-based; settings: Oryctolagus cuniculus, read-out: Hemmung des durch 10⁻⁵ mol/l Noradrenalin stimulierten Ca²⁺ Efflux
Description: (§1) 2. In einer weiteren Testanordnung wurde die Wirkung und der Mechanismus der Verbindungen auf die Ca²⁺-Fluxe wie folgt nachgewiesen: Die Bestimmung des Ca²⁺-Efflux wurde nach der Methode von C. van Breemen, P. Aarsonson, R. Loutzenheiser und K. Meisheri (Chest 78, 157S-165S (1980) und von R. Casteels und G.Droogman (J.Physiol. 317, 263-276 (1981)) durchgeführt. Mit dem Ca²⁺-Efflux wird die intrazelluläre Ca²⁺-Freisetzung auf eine Rezeptorstimulation gemessen. Damit ist eine quantitative Beurteilung des Ausmaßes der Rezeptor-vermittelten Wirkung möglich.
(§2) Untersuchungen zum Ca²⁺-Efflux an der Kaninchen-Aorta ergaben, daß die Verbindungen der Formel I den durch Kaliumionen und Noradrenalin stimulierten Ca²⁺-Efflux hemmen.
(§3) Versuche mit der oben genannten Verbindung A (N-[N-(1-L-Ethoxycarbonyl-3-phenylpropyl)-L-alanyl]4,5,6,7-tetrahydro-thieno[2,3-c]pyridin-7-L-carbonsäure ergaben: Die Hemmung des durch 10⁻⁵ mol/l Noradrenalin stimulierten Ca²⁺ Efflux liegt bei 25, 24 und 30 % mit der oben angeführten Verbindung A in den entsprechenden Konzentrationen 10⁻⁶, 10⁻⁵ und 10⁻⁴ mol/l. Das weist auf eine grundsätzlich nur partielle Hemmung hin. Der Ca²⁺-Influx durch K⁺ Depolarisation wird zu 38% gehemmt (10⁻⁵ mol/l der Verbindung A).

[4] = test system: Ca²⁺-Influx durch K⁺ Depolarisation; assay: Ca2+ influx by K+ depolarisation; assay type: cell-based, Kaninchen; settings: Oryctolagus cuniculus; compound 10⁻⁵ mol/l; read-out: Hemmung des Ca²⁺-Influx durch K⁺ Depolarisation
Description: as §1, §2, §3

[5] = test system: Mäusen (ChbI:NMRI); assay: Scopolamine test: passive avoidance reaction in mice; assay type: in vivo
Description: Durch den cholinerg-muskarinen Antagonisten Scopolamin wird bei Mensch und Tier eine vorübergehende Störung des Überganges von Inhalten des Kurzzeitgedächtnisses in das Langzeitgedächtnis hervorgerufen. Die auch klinisch bei gesunden Probanden durch Scopolamin auslösbaren, mnestischen Störungen sind in ihrer Ausprägung den psychopathologischen Veränderungen bei Patienten mit organischem Hirnsyndrom ähnlich (Drachman & Leavitt, 1974).
Der Scopolamin-Test wird an Gruppen von jeweils 10 männlichen, nicht nüchternen, naiven Mäusen (ChbI:NMRI; Körpergewicht 35 g) mit Hilfe einer passiven Vermeidereaktion durchgeführt. Das Testgerät besteht aus einer Skinner Box (30 cm × 26 cm × 29 cm) mit einem elektrifizierbaren Gitterboden und einer Plastikplattform (5 cm × 5 cm) an einer Seitenwand. Die Tiere werden einzeln in die Skinner Box gesetzt. Nach einer Orientierungsperiode von 30 sec werden kurze, unterbrochene Stromstöße von ca. 0,8 mA so oft an den Gitterboden der Box gelegt, bis das Tier gelernt hat, daß das Aufsuchen und Verweilen auf der Plastikplattform vor dem Stromstoß Sicherheit gewährt. Tiere, welche dies innerhalb von 120 sec nicht lernen, werden nicht weiter verwendet. Die anderen Mäuse werden unmittelbar nach Erlernen der passiven Vermeidereaktion in drei Gruppen (10 Tiere pro Gruppe) eingeteilt. Eine Gruppe erhält Scopolaminhydrobromid (0,6 mg/kg s.c.) und oral Vehikel (0,5 % Tylose); die zweite Gruppe Scopolaminhydrobromid sowie die zu testende Substanz per os in 0,5 % Tylose und die dritte Gruppe lediglich 0,5 % Tylose p.o.. Eine Stunde nach Application wird jedes Tier einzeln auf die Plattform gesetzt, um das Erinnerungsvermögen an die erlernte Vermeidereaktion zu prüfen. Das Kriterium besteht in der Bestimmung, ob die Maus während mindestens 60 sec. auf der Plattform verbleibt (Ja-Antwort) oder nicht (Nein-Antwort).
Etwa 75% der Tiere, welche ausschließlich mit 0,5 % Tylose behandelt wurden, verbleiben bei der abschließenden Prüfung länger als 60 sec. auf der Plattform: ein Ergebnis, welches als Ausdruck des guten Erinnerungsvermögens an die erlernte Erfahrung gedeutet werden kann. Nach Gabe von Scopolamin und Tylose verbleiben durchschnittlich etwa 25 % der Tiere auf der Plattform; dies zeigt die erhebliche Beeinträchtigung des Erinnerungsvermögens nach Gabe von Scopolamin. Verbindungen der Formel I antagonisieren die Scopolaminwirkung statistisch signifikant. Zum Beispiel ist die oben genannte Verbindung A (N-[N-(1-L-Ethoxycarbonyl-3-phenylpropyl)-L-alanyl]-4,5,6,7-tetrahydro-thieno[2,3-c]-pyridin-7-L-carbonsäure) bei einer Dosis über 0,1 mg/kg p.o. (insbesondere ab 0,5 mg/kg p.o.) wirksam. In Gegensatz dazu sind Captopril bei Dosen von 10 und 30 mg/kg p.o. und Enalapril bei einer Dosis von 5 mg/kg p.o. unwirksam.

SMILES | ED50 [1] | Wiederauftreten regelmäßiger Kontraktionen nach Reperfusion [2] | other results
CCOC(=O)[C@H](CCc1ccccc1)N[C@@H](C)C(=O)N1CCc2ccsc2[C@H]1C(=O)O [A, N-[N-(1-L-Ethoxycarbonyl-3-phenylpropyl)-L-alanyl]-4,5,6,7-tetrahydro-thieno[2,3-c]pyridin-7-L-carbonsäure] | 0.63 mg/kg | zeitliche Verkürzung des Wiederauftretens regelmäßiger Kontraktionen | inhibition at 100 µM ([3]; compound 10⁻⁴ mol/l): 30%; inhibition at 10 µM ([3]; compound 10⁻⁵ mol/l): 24%; inhibition at 1 µM ([3]; compound 10⁻⁶ mol/l): 25%; inhibition at 10 µM [4]: 38%; Antagonismus der Scopolaminwirkung ([5]; dose above 0,1 mg/kg p.o. (especially from 0,5 mg/kg p.o.)): wirksam
CC(CS)C(=O)N1CCC[C@@H]1C(=O)O (stereo partly drawn) [Captopril, D-2-Methyl-3-mercaptopropanoyl-L-prolin] | 1.52 mg/kg | deutlich schwächer | Antagonismus der Scopolaminwirkung ([5]; 10 mg/kg p.o.): unwirksam; Antagonismus der Scopolaminwirkung ([5]; 30 mg/kg p.o.): unwirksam
C[C@H](N[C@@H](CCc1ccccc1)C(=O)O)C(=O)N1Cc2nc[nH]c2C[C@H]1C(=O)O [D, N-[N-(1-L-Carboxy-3-phenylpropyl)-L-alanyl]-4,5,6,7-tetrahydro-1H-imidazo[4,5-c]pyridin-6-L-carbonsäure] | 1.32 mg/kg | – | –
C[C@H](N[C@@H](CCc1ccccc1)C(=O)O)C(=O)N1Cc2ccsc2C[C@H]1C(=O)O [E, N-[N-(1-L-Carboxy-3-phenylpropyl)-L-alanyl]-4,5,6,7-tetrahydro-thieno[3,2-c]pyridin-6-L-carbonsäure] | 1.1 mg/kg | – | –
CCOC(=O)[C@H](CCc1ccccc1)N[C@@H](C)C(=O)N1CCC[C@H]1C(=O)O [Enalapril, 1-N-[(S)-1-Ethoxycarbonyl-3-phenylpropyl]-S-alanyl-S-prolin] | 1.59 mg/kg | deutlich schwächer | Antagonismus der Scopolaminwirkung ([5]; 5 mg/kg p.o.): unwirksam
